Patent US12103952B2, “Methods for expressing proteins in axons” (Cornell University, priority 2010, dated 2024)

How the values were obtained:
pCREB = assay: Nuclear pCREB, pTrkA and pErk5 immunofluorescence after axonal NGF in compartmented cultures; format: cell-based, rat; details: 30 ng/ml NGF on axons, 20 min
Text: FIGS. 9A-E are data showing that axonal CREB is required for CRE-dependent transcription and NGF-mediated DRG survival. (A) DRG axons in compartmented cultures were transfected with CREB siRNA in the axon compartment only, and CREB levels were detected using a CREB antibody. Axons crossing the compartment divider were retrogradely labeled with WGA-Alexa488. All compartments were maintained in NGF-containing media throughout the experiment. Scale bar, 50 μm. (B) Quantification of data in (A). Immunofluorescence levels in each compartment were normalized to fluorescence signals from cultures treated with non-targeting siRNA. *p<0.0001. Numbers on bars represent n axons per condition. […] After 48 hours, 30 ng/ml NGF was added to the axon compartment for 20 min, after which pCREB levels in nuclei were quantified by immunofluorescence. *p=0.0004. […]
FIGS. 10A-G are data showing selective CREB knockdown in distal axons, but not proximal axons determined by compartmentalized siRNA transfection. […] (B) Quantification of data in (A). FISH levels in each compartment were normalized to fluorescence signals from cultures treated with non-targeting siRNA. β-actin mRNA FISH signals were unaffected by CREB-specific siRNA. *p<0.001. […] (C) Transfection was as in FIG. 9A, except CREB knockdown was assessed by Western blot instead of immunofluorescence. […]

4E-BP1 = assay: Phospho-4E-BP1 immunofluorescence in axons; format: cell-based, rat; details: NGF 1 hour after 2 hour NGF-free media
Experimental: FIGS. 2A-E are results showing that local protein synthesis in axons is required for NGF-dependent survival. (A) Phospho-4E-BP1 levels increase in growth cones in response to NGF treatment. DRG neurons were incubated with NGF-replete or NGF-free media; phospho-4E-BP1 levels in axons were measured by immunofluorescence. Scale bar, 50 μm. (B) Quantification of total and phospho-4EBP1 in (A) p=0.012. Numbers on bars represent n axons per condition. (C) Schematic diagram of compartmented (Campenot) chambers. E15 dissociated DRG neurons are cultured in the cell body compartment and axons grow under a thinly applied silicone grease layer that seals the chamber with the Permanox® plastic culture slide. (D) Application of protein synthesis inhibitors to axons blocks NGF-mediated retrograde survival. Dissociated DRG neurons were grown in compartmentalized chambers, and vehicle or NGF was added to the axon compartment. 1 μM cycloheximide (CHX) or 40 μM anisomycin (Aniso) were added to the axon compartment concurrently with NGF media. Cell body compartments were kept NGF-free during the course of the experiment. Cells crossing the divider were retrogradely labeled with WGA-Alexa555 and only WGA-positive cell bodies were counted in the data set. Survival was assessed by TUNEL assay. […] (E) Quantification of results from (D). *p<0.001. […]

NGF: nerve growth factor
levels of pCREB in the nucleus (pCREB): increased levels of pCREB in the nucleus | phosphorylation of 4E-BP1 in axons (4E-BP1): increased phosphorylation of 4E-BP1 at S64 and T69
